Source: a melting point compilation (Tetko et al.)

melting point [°C]	SMILES
-85	CCCCOC(=O)C=CC(=O)OCCCC
91	Brc1ccc2[nH]ccc2c1
102 to 104	COc1ccccc1P(CCP(c1ccccc1)c1ccccc1OC)c1ccccc1 (centres undefined)
224 to 225	O=C(O)CNCCNCC(=O)O
-68	FC(F)(F)C(F)(F)C(F)(F)C(F)(F)I
154	COc1ccc(-c2ccc(S(=O)(=O)N3CCCC3C(=O)O)cc2)cc1 (centres undefined)
118	O=C(c1ccccc1)c1cc(C(=O)c2ccccc2)cc(C(=O)c2ccccc2)c1
114	CCOC(=O)CNC(c1ccccc1)(c1ccccc1)c1ccccc1
275	c1ccc(N=Nc2ccc(N=Nc3ccc(/N=N/c4ccc(N=Nc5ccccc5)cc4)cc3)cc2)cc1
79	COc1ccc(C(O)(c2ccc(OC)cc2)c2ccc(OC)cc2)cc1
126	Cn1nc(-c2cc(OCC(=O)O)c(Cl)cc2F)c(Cl)c1OC(F)F
147 to 149	C=CCSc1ncccc1C(=O)O
149	Nc1c(F)cc(O)cc1F
319	Nc1cccc2c1C(=O)c1cccc(N)c1C2=O
145 to 148	CC(C)(C)c1ccc(C(N)=S)cc1
118 to 119	COc1ccccc1NC(=O)c1cnc(C(C)(C)C)c(Cl)n1
132	O=[N+]([O-])c1ccc2cccnc2c1
116 to 120	COc1cc(C)c2c(=O)c(-c3ccccc3)coc2c1
300	Sc1nc2cc3c(cc2[nH]1)OCCO3
131	CC1(C)CC(=O)c2c(C(=O)c3cccs3)noc2C1
282	O=C(O)c1cc(O)c2ccccc2n1
50.5	COc1cc(N=C=S)cc(OC)c1
34	CCCCCCCCCCS(=O)(=O)Cl
97	COc1cc([N+](=O)[O-])ccc1S(=O)(=O)Cl
122	O=C1OC(c2ccccc2)=N/C1=C\c1ccc(Br)o1
177	CC(CC(=O)O)C1CCC2C3CCC4CCCCC4(C)C3CCC12C (centres undefined)
228	CCn1cc(C(=O)O)c(=O)c2cc(F)c(N3CCNCC3)cc21

melting point [°C]	SMILES
36 to 38	CCCCCCC(O)CO (centres undefined)
220	OCC1OC(n2cnc3c2N=CNCC3O)CC1O (centres undefined)
140 to 142	c1ccc(-c2csc3nc4ccccc4n23)cc1
122 to 124	Cc1sc2c(c1C)C(=O)CS(=O)(=O)N2C
28	Nc1cc(F)c(F)c(F)c1F
171	CC(C)(C(=O)O)C(CC(=O)O)c1ccccc1 (centres undefined)
202 to 209	Cc1nsc(N)n1
-47	CCCCCOC(=O)CCCCC
225	FC12CC3CC(CC(C3)C1)C2
18	CCC(C)Nc1ccc(NC(C)CC)cc1 (centres undefined)
-94	CCOC(C)(C)C
76	N#CCc1c(Cl)cccc1Cl
99 to 100	Cc1cc(C)c2c(c1)CC(C)(C)C(=O)OC2=O
205	COc1ccccc1-c1nnc2n1NC(c1ccccc1O)S2 (centres undefined)
-108	CCC1CCC(C)C1 (centres undefined)
84 to 90	CC(=O)c1ccc(N2CCCCC2)cc1
190	O=C1Nc2c(Cl)cccc2C1=O
62.5	COC1=C(OC)C(=O)C(C)=C(C)C1=O
139 to 140	CC1(C)CC(=O)C(=NNc2ccccc2[N+](=O)[O-])C(=O)C1
302	NC(C(=O)O)c1ccccc1 (centres undefined)
92 to 95	O=C(O)c1ccccc1-c1cccs1
-94	C=Cc1ccco1
55 to 58	O=C1CCCN1c1ccc(F)cc1
248	O=c1c(O)c(-c2ccc(O)c(O)c2)oc2cc(OC3OC(CO)C(O)C(O)C3O)cc(O)c12 (centres undefined)
92 to 93	COc1ccc(Br)c(C(=O)CC#N)c1
22	C#CCCCCCCCCCCCCCCC
66	O=[N+]([O-])c1cc(N=C=S)ccc1Cl

melting point [°C]	SMILES
-26.3	N#CCCOCCC#N
202 to 203	NC(=O)Cc1nc(-c2ccc([N+](=O)[O-])cc2)cs1
66	CCC(C)[C@@H]1NC(=O)OC1=O (some centres undefined)
20	Oc1ccccc1S
100 to 103	OC1OC(c2ccccc2)Cc2ccccc21 (centres undefined)
71	O=S(=O)(Cl)c1cc(Br)ccc1Br
49 to 51	O=C(Cl)c1ccccc1COc1ccccc1
151	Brc1cccc2cc(C=NNc3ccccc3)ccc12
93 to 95	ON=C(Cl)c1ccc(Cl)cc1Cl
158	NNC(=O)c1cccc(O)c1
184	CC(C)=CC(=O)NS(=O)(=O)c1ccc(N)cc1
163	Cc1cc(C)n(-c2ccc(C(=O)O)cc2)n1
80	COc1cc(N)ccc1Cl
102 to 104	Nc1ccc(N2CCOCC2)c(Cl)c1
55 to 59	CNC(=O)Cc1ccccc1
241 to 242	COc1ccccc1Nc1[nH]c(=S)nnc1-c1ccccc1
158	O=C(O)COc1ccccc1[N+](=O)[O-]
169	O=C(CC(C(=O)c1ccccc1)C(CC(=O)c1ccccc1)C(=O)c1ccccc1)c1ccccc1 (centres undefined)
234 to 236	O=c1[nH]cc(Cl)cc1[N+](=O)[O-]
-60	C#CCCCCCC
149	N#C/C(=N/Nc1cc(Cl)c(Cl)cc1Cl)c1nc2ccccc2c(=O)[nH]1
192 to 195	CC(=O)/C=C/c1ccc([N+](=O)[O-])o1
222	NS(=O)(=O)c1cc2c(s1)SCCC2=O
123 to 128	COc1cc(C(C)=O)cc(OC)c1O
129 to 130	NNC(=O)c1snnc1-c1ccccc1

SMILES	melting point [°C]
CN1C(=O)C(=NNc2cccc(Cl)c2)C(=O)N(C)C1=O	202
CC(=Cc1ccc(F)cc1)[N+](=O)[O-]	64 to 67
O=C(Cl)c1ccc(CCl)cc1	29 to 33
Nc1ccccc1/C=C/c1cc(/C=C/c2cccc([N+](=O)[O-])c2)c([N+](=O)[O-])cc1[N+](=O)[O-]	250
ICCCCCCI	9.5
Cn1nnc2cc(CBr)ccc21	120
CCCCN(CC)c1c([N+](=O)[O-])cc(C(F)(F)F)cc1[N+](=O)[O-]	66
CCS(=O)CCSP(=O)(OC)OC (centres undefined)	-49
COc1ccc(CO)cc1O	136
COC1C=CC23c4cc5c(cc4COC2(O)CN(C)C3C1)OCO5 (centres undefined)	210
O=C(OC(=O)C(Cl)Cl)C(Cl)Cl	29
Cc1ccc(C)c(N2CCNCC2)c1	45
CC12CCC(=O)CC1CCC1C2CCC2(C)C1CCC2(C)O (centres undefined)	192
CCS(=O)(=O)c1cccnc1S(=O)(=O)NC(=O)Nc1nc(OC)cc(OC)n1	177
CNNC	-9
